Results reported in publication PMC9028786, “The Ribosome Is the Ultimate Receptor for Trypsin Modulating Oostatic Factor (TMOF)” (Biomolecules, 2022).
Read-outs that look alike come from different tables or passages of the source. Ends that are not written are not given here.

How the values were obtained:
[1] = tested on: bacterial 70 S ribosome; assay: Inhibition of luciferase translation in E. coli S30 extract; assay type: biochemical, Escherichia coli; details: 2 h at 37 °C
Experimental: To test the effect of AeaTMOF and Oncocin112 (1–13) on the translation of Luciferase by the bacterial 70 S ribosome, an E. coli S30 lysate extract system for circular DNA (Promega) containing a plasmid pBestluc DNA vector (4486 bp) (1 mg/mL) 0.3 μL, amino acid mixture without methionine (1 mM) 1.25 μL, amino acid mixture without Leucine (1 mM) 1.25 μL, S30 premix (including ribosomes) without amino acids 5 μL, S30 extract circular 3.5 μL, RNasin (8 U, 112 ng) 0.2 μL, different concentrations of AeaTMOF or Oncocin112 (1–13) (0.001 μM to 1000 μM), and nuclease-free water to a volume of 12.5 μL were incubated for 2 h at 37 °C. […] After incubation, 87.5 μL of GLO lysis buffer (Promega) containing beetle luciferin was added, mixed, and aliquots (5 μL) were removed, and their luminescence read in a GLOMAX multidetector system. […] The decrease in luminescence (% ± SEM) in the presence of increasing log AeaTMOF or Oncocin112 (1–13) concentrations was then plotted using GrapPad Prism 3.

[2] = tested on: S. frugiperda 80S ribosomes; assay: Inhibition of larval Ae. aegypti late trypsin translation in TnT T7 insect cell extract; assay type: biochemical, Spodoptera frugiperda; details: TnT T7 insect cell extract from S. frugiperda Sf21, pFA25A ICE T7 flexi-late larval trypsin, [3H]leucine, 30 °C, 4 h, AeaTMOF 0.01–750 μM; mean of three determinations; linear regression; read-out: IC50, inhibition of Ae. aegypti late larval [3H]trypsin biosynthesis
[3] = tested on: E. coli CGSC strain7636 cells expressing SbmA^+; assay: Growth/viability of E. coli CGSC strain7636 expressing SbmA; assay type: cell-based, Escherichia coli; details: 3 and 10 mM peptide, 37 °C, 18 h, p < 0.05 vs control
Experimental: (§1) We aimed to find out if AeaTMOF can also stop bacterial growth as, was shown for the proline-rich Oncocin112 that binds to the bacterial ribosome, stopping protein translation, bacterial growth, and causing bacterial death. E. coli CGSC strain7636 (2.7 × 10^4 cells) SbmA^+, expressing the proline-rich peptides importer SbmA, were incubated in 96-well plate containing 100 μL/well of LB medium, 0.4 mM of IPTG, 0.1 mM of ampicillin, and different concentrations of AeaTMOF and Oncocin112 (1–13) (3 mM and 10 mM) in different wells. The 96-well plate was incubated at 37 °C for 18 h and bacterial growth was followed at 630 nm using Biotech ElX808 absorbance microplate reader. Control wells contained bacterial cells growing without AeaTMOF or oncocin112 (1–13). […] After the incubations in the presence of Oncocin112 (1–13) or AeaTMOF of 10 mM and 3 mM, aliquots (0.5 μL) were removed from each well and spread on LB agar plates containing 0.1 mM of ampicillin, and the plates were incubated overnight at 37 °C and viable colonies were counted. Incubations were done in triplicates and the experiments were repeated twice. Results are expressed as means of three determinations ± SEM.

[4] = tested on: E. coli mutant cells CGSC strain 8547 SbmA^- expressing only ABC-tmfA importer; assay: Growth/viability of E. coli mutant CGSC strain 8547 SbmA^- expressing ABC-tmfA importer; assay type: cell-based, Escherichia coli
Experimental: E. coli CGSC strain […] lacking the SbmA importer expressing the ABCtmfA receptor/importer was prepared using plasmid pTAC-MAT-2 ABCtmfA importer/receptor as described earlier. [3,4,5 ^3H]Leucine 250 μCi, Spc Act 100–150 Ci/mmol was purchased from Perkin Elmer (Waltham, MA, USA). AeaTMOF-FITC (H-YDPAPPPPPPK(FITC)K-OH) was synthesized at the University of Colorado Anschutz School of Medicine protein core. AeaTMOF-FITC was purified by HPLC showing a single peak, and mass spectrometry analysis of the peak identified the 3 expected ions at 455.7, 607.3, and 910.3, showing an expected Mr 1019.56 as was described earlier. Synthetic AeaTMOF (H-YDPAPPPPPP-OH) and a short Oncocin112(1–13) (H-VDKPPYLPRPRPP-OH), a 13 amino acids oncocin112 peptide, 6 amino acids shorter than the original oncocin112 of 19 amino acids, were synthesized and purified by HPLC [16]. After HPLC purifications of AeaTMOF, oncocin112 (1–13), and AeaTMOF-FITC, the TFA ions were exchanged with phosphate ions.
as §1

[5] = tested on: luciferase; assay: Effect on activity of pre-synthesized luciferase; assay type: biochemical, Beetle; details: S30 extract with pBESTluc for 4 h without peptide, then AeaTMOF 1 to 100 μM added; results not shown
Experimental: Incubations of E. coli S30 extract synthesizing Beetle luciferase in the presence of an increasing concentration of AeaTMOF (0.001 to 750 μM) stopped the biosynthesis of luciferase, diminishing its activity on Beetle luciferin as measured in luminescence units. The activity of the in vitro synthesized luciferase on Beetle luciferin at very low concentration of AeaTMOF (0.001 μM) was similar to luciferase activity without AeaTMOF, and this luminescence was used to calculate the decrease in luminescence (%) after incubation with increasing concentrations of AeaTMOF (Figure 1A). Higher concentrations of AeaTMOF (higher than 0.001 μM) caused a linear decrease in the synthesis of luciferase and a decline in luminescence (%) reaching IC50 (inhibition concentration of 50%) at 1 μM (Figure 1A). […] AeaTMOF is not an inhibitor of luciferase.

[6] = tested on: late trypsin transcript in the gut epithelial cells; details: circulating in hemolymph of females after the blood meal; cited from earlier work
Text: (§2) Aedes aegypti Trypsin Modulating Oostatic Factor (AeaTMOF), a proline-rich peptide (YDPAPPPPPP), was originally isolated from the ovaries of female Ae. aegypti. AeaTMOF controls the biosynthesis of trypsin-like enzymes in the midgut epithelial cells of several species of mosquito including Aedes. aegypti, Culex quinquefasciatus, Culex. nigripalpus, and Anopheles albimanus. […] AeaTMOF was also ...

[7] = tested on: late trypsin transcript; details: cited from earlier work
Text: as §2

[8] = tested on: ABC-tmfA transporter (accession number MK895491); details: cited from earlier work
Text: (§3) Several of these ABC transporters with 80–100% similarity with the AeaTMOF receptor are also found in several Aedes, Anopheles, and ...

[9] = tested on: Ae. aegypti larvae; details: fed AeaTMOF expressed by engineered Chlorella desiccate, Saccharomyces cerevisiae, and Pichia pastoris; cited from earlier work
Text: as §3

[10] = tested on: trypsin mRNA in the gut epithelial cells; details: gut epithelial cells of Ae. aegypti and Neobellieria bullata; cited from earlier work
Text: as §3

[11] = tested on: female mosquitoes; details: injection after blood meal; cited from earlier work

Sequence: YDPAPPPPPP [AeaTMOF]
- Inhibition of luciferase biosynthesis at lowest concentration ([1]; AeaTMOF at 0.001 μM, Oncocin112 (1–13) at 0.01 μM): do not inhibit the biosynthesis of luciferase
- Concentration of complete inhibition of luciferase biosynthesis ([1]; E. coli S30 extract, luminescence): 250 to 750 µM
- IC50 ([1]; E. coli S30 lysate, pBestluc DNA, peptide 0.001 to 750 μM, luminescence read-out, mean of three determinations, read-out: IC50, inhibition of luciferase biosynthesis (luminescence)): 1000 nM
- IC50 [2]: 1800 nM
- E. coli growth ([3]; 630 nm): significantly inhibited the growth of the E. coli cells
- Viable colonies at end of incubation ([3]; initial 2.7 × 10^4 cells, LB medium, plated on LB agar, triplicates): 4–10 colonies
- E. coli growth ([4]; SbmA^- cells expressing ABC-tmfA importer, 3 and 10 mM peptide, 37 °C, 18 h, 630 nm, p < 0.05 for inhibition): significantly (p < 0.05) inhibited
- E. coli cell growth (discussion) ([4]; cells that only expressed ABCtmfA receptor/importer, up to 10 mM): inhibiting protein synthesis and cell growth
- Importer used ([4]; inferred from growth of SbmA^+ and SbmA^- ABC-tmfA E. coli, 3 and 10 mM): can use the mosquito ABCtmfA importer, as well as the bacterial SbmA importer
- Effect on activity of luciferase synthesized in vitro [5]: did not affect the activity of luciferase
- Effect on translation of late trypsin transcript [6]: affects the translation of the late trypsin transcript in the gut epithelial cells
- Inhibition of translation of late trypsin transcript ([7]; AeaTMOF expressed on coat protein of Tobacco Mosaic Virus, fed to insects): stopped the translation of the trypsin transcript in the gut epithelial cells
- Inhibition of translation of late trypsin transcript [7]: inhibit the translation of the late trypsin transcript
- Binding to gut receptor/importer [8]: binds a gut-specific receptor ABC-tmfA transporter
- Effect on larvae [9]: stopped larval trypsin biosynthesis and caused larval starvation and death
- Effect on translation of trypsin mRNA [10]: stop the translation of trypsin mRNA
- Effect on blood-fed female mosquitoes [11]: only inhibits trypsin biosynthesis, and as a result the blood meal is not digested and egg development is inhibited, making the female mosquitoes sterile but not killing them
